From publication PMC11603770, “Validating anti-inflammatory and cytotoxic properties of Fagonia cretica L. through metabolic, in vitro, and in silico profiling” (BMC Complementary Medicine and Therapies, 2024)
Converted amounts (≈) assume the structure as drawn.

How the values were obtained:
Assay type in all cases: cell-based
[1] = tested on: nitric oxide formation by LPS-stimulated RAW 264.7 murine macrophage cells; assay: Nitric oxide inhibitory assay (Griess nitrite assay); conditions: Mus musculus, RAW264.7; LPS-stimulated RAW 264.7, 24 h
Method: RAW 264.7 murine macrophage cells were stimulated by LPS (Lipopolysaccharide) to produce inflammatory mediators as NO, the produced nitrite (NO2-) was measured using the Griess reagent, RAW 264.7 murine macrophage-like cells were grown in phenol red-free RPMI-1640 containing 10% FBS. Cells were incubated for 24 h with LPS ([…]) in the presence of different concentrations of the plant extract. Then 50 µl of supernatant from each well of cell culture was transferred into 96-well microplates and equal volume of Griess reagent (1% sulfanilamide, 0.1% N-(1-naphthyl)-ethylenediamine hydrochloride, 2.5% H3PO4) was then added to the supernatant at room temperature. The absorbance at 550 nm was determined in UV-Vis microplate reader after 10 min. The concentrations of nitrite were derived from regression analysis using serial dilutions of sodium nitrite as a standard. Percentage of inhibition was calculated based on the ability of the extract to inhibit nitric oxide formation by cells compared with the control (cells in the media without the extract containing triggering agents and DMSO), which was considered as 0% inhibition.

[2] = tested on: CACO2 cells (intestinal carcinoma cell line); assay: MTT viability assay, CACO2; conditions: Homo sapiens, Caco-2, 24 h
Method: The Cytotoxic activity was tested using the viability assay following the method reported by Mosmann, T., 1983 [21, 22]. HepG2 cells (liver carcinoma cell line), MCF-7cells (breast carcinoma cell line) and CACO2 cells (intestinal carcinoma cell line) (American Type Culture Collection ATCC, Rockville, MD) were applied through the tissue Culture Unit, the Egyptian Organization for Biological Products and Vaccines, Vacsera, Egypt. In brief, the tumor cell lines were suspended in medium at concentration 5 × 10^4 cell/ well in Corning® 96-well tissue culture plates and then incubated for 24 h. The alcoholic extract of F. cretica was then added into 96-well plates (three replicates) to achieve twelve concentrations. Six vehicle controls with media or 0.5% DMSO were run for each 96 well plate as a control. After incubating for 24 h, the number of viable cells was determined by the MTT test. Briefly, the media was removed from the 96 well plates and replaced with 100 µl of fresh culture RPMI 1640 medium without phenol red then 10 µl of the 12 mM MTT stock solution (5 mg of MTT in 1 ml of PBS) to each well including the untreated controls. […] Then, the optical density (OD) was measured at 590 nm with the microplate reader (SunRise, TECAN, Inc, USA) to determine the number of viable cells and the percentage of viability was calculated as follows: […]

Caspase-9 (human) = assay: Caspase-9 level ELISA in MCF-7
Method: To measure caspase-9 levels, DRG® Caspase-9 (human) ELISA (EIA-4860) kits were used. In brief, the breast cancer cell line (MCF-7) extracts were prepared after elevation of apoptosis. The extracts were suspended in lysis buffer, and incubated at room temperature for 60 min and then centrifuge for 15 min. The microwell strips were washed with 400 µl wash buffer, followed by addition of 100 µl of sample diluent in duplicate to all standard wells, 100 µl of sample diluent in duplicate to the blank wells, 50 µl of sample diluent to the sample, and 50 µl of each sample in duplicate to the sample wells. Then the detection antibody 50 µl was added to all wells and incubated for 2 h at room temperature. The diluted antirabbit-IgG-HRP (anti-rabbit-immunoglobulin G-horseradish peroxidase) 100 µl was added to all wells together with blank wells. TMB substrate solution 100 µl was added to all wells and incubated for 15 min. at room temperature. Finally, the enzyme reaction was stopped by adding 100 µl of the stop solution to all wells. The absorbance of each microwell was measured at 450 nm using a spectrophotometer. The absorbance of the samples and standard were recorded.

SMILES | IC50 [1] [µg/mL] | IC50 [2] [µg/mL] | Caspase-9 level induction (Caspase-9 (human); MCF-7) [folds] | Caspase-9 (Conc.) (Caspase-9 (human); breast human carcinoma cell line (MCF-7), control 2.986 ± 0.31) [ng/mL]
O=C1O[C@H]([C@@H](O)CO)C(O)=C1O [Ascorbic acid] | 18.7 ± 0.77 (≈ 106 µM) |  |  | 
COc1cccc2c1C(=O)c1c(O)c3c(c(O)c1C2=O)C[C@@](O)(C(=O)CO)C[C@@H]3O[C@H]1C[C@H](N)[C@H](O)[C@H](C)O1 [Doxorubicin] |  | 7.75 ± 0.4 (≈ 14.3 µM) | 8.67 | 25.84 ± 0.39
